From PubChem BioAssay (NCI)
Where “and” joins values, the source holds several entries; their conditions need not be identical. Equal entries are not always repeated.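 Results reflect a 48-hour exposure of cells in 96-well plates to compound at five concentrations. Abbreviation: GI50, concentration required for 50% inhibition of growth. TGI: concentration producing complete growth inhibition.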

Columns and labels:
Assay in all cases: NCI anticancer screen, dose series, 48 h
PC-3 prostate = tested on: PC-3 prostate
SK-MEL-28 melanoma = tested on: SK-MEL-28 melanoma
RXF 393 renal = tested on: RXF 393 renal
IGROV1 ovarian = tested on: IGROV1 ovarian
OVCAR-5 ovarian = tested on: OVCAR-5 ovarian
UO-31 renal = tested on: UO-31 renal
HCT-15 colon = tested on: HCT-15 colon
OVCAR-3 ovarian = tested on: OVCAR-3 ovarian
MALME-3M melanoma = tested on: MALME-3M melanoma
COLO 205 colon = tested on: COLO 205 colon

O=C(Nc1cccc(-n2ccc3c(NC(=O)c4ccccc4)nccc32)c1)c1ccc(N2CCOCC2)c(C(F)(F)F)c1
GI50 (PC-3 prostate): 0.0538 µM | TGI (PC-3 prostate): > 100 µM | GI50 (SK-MEL-28 melanoma): 0.0436 µM | TGI (SK-MEL-28 melanoma): > 100 µM | GI50 (RXF 393 renal): 0.0333 µM | TGI (RXF 393 renal): 2.69 µM | GI50 (IGROV1 ovarian): 0.057 µM | TGI (IGROV1 ovarian): > 75.4 µM | GI50 (OVCAR-5 ovarian): 0.188 µM | TGI (OVCAR-5 ovarian): > 100 µM | GI50 (UO-31 renal): 0.0537 µM | TGI (UO-31 renal): 37.8 µM | GI50 (HCT-15 colon): 0.037 µM | TGI (HCT-15 colon): > 64.7 µM | GI50 (OVCAR-3 ovarian): 0.0233 µM | TGI (OVCAR-3 ovarian): 0.0504 µM

CCOc1ccc2nc(-c3ccc(O)cc3)sc2c1
TGI (PC-3 prostate): > 100 µM | TGI (RXF 393 renal): > 100 µM | TGI (IGROV1 ovarian): > 100 µM | TGI (OVCAR-5 ovarian): > 100 µM | TGI (MALME-3M melanoma): > 100 µM | TGI (UO-31 renal): > 100 µM | TGI (COLO 205 colon): > 100 µM | TGI (HCT-15 colon): > 100 µM | TGI (OVCAR-3 ovarian): > 100 µM

CC[C@]1(O)C[C@H]2CN(CCc3c([nH]c4ccccc34)[C@@](C(=O)OC)(c3cc4c(cc3OC)N(C=O)[C@H]3[C@@](O)(C(=O)OC)[C@H](OC(C)=O)[C@]5(CC)C=CCN6CC[C@]43[C@@H]65)C2)C1
GI50 (SK-MEL-28 melanoma): 0.00464 µM | TGI (SK-MEL-28 melanoma): 113 µM | TGI (RXF 393 renal): 17.5 µM and 74.1 µM | TGI (MALME-3M melanoma): 6.23 µM and 32 µM and 58.1 µM | GI50 (UO-31 renal): 0.476 µM | GI50 (COLO 205 colon): 0.00159 µM | TGI (COLO 205 colon): 0.0463 µM and 0.22 µM

O=C1OC(c2ccccc2)=N/C1=C\c1cccnc1
TGI (PC-3 prostate): > 100 µM | TGI (SK-MEL-28 melanoma): > 100 µM | TGI (RXF 393 renal): > 100 µM | TGI (IGROV1 ovarian): > 100 µM | TGI (OVCAR-5 ovarian): > 100 µM | TGI (UO-31 renal): > 100 µM | TGI (HCT-15 colon): > 100 µM | TGI (OVCAR-3 ovarian): > 100 µM

COC1=C2CC(C)CC(OC)C(O)C(C)/C=C(\C)C(OC(N)=O)C(OC)/C=C\C=C(/C)C(=O)NC(=C(C=NC(C)(C)C)C1=O)C2=O (stereo unspecified)
TGI (SK-MEL-28 melanoma): 11.7 µM | TGI (RXF 393 renal): 4.89 µM | TGI (IGROV1 ovarian): 53.2 µM | TGI (OVCAR-5 ovarian): 74.1 µM | TGI (MALME-3M melanoma): 5.23 µM | TGI (UO-31 renal): 40.5 µM | TGI (COLO 205 colon): 10.6 µM | TGI (HCT-15 colon): 33.1 µM | TGI (OVCAR-3 ovarian): 13.2 µM

CC(=O)OC1C(C)OC(Oc2c(C)c3c4c(c2O)[C@@H](C)CC[C@@H]4[C@@H](C)C[C@H]3C=C(C)C)C(O)C1O (stereo partly specified)
GI50 (RXF 393 renal): 4.11 µM | TGI (RXF 393 renal): 20.9 µM | GI50 (IGROV1 ovarian): 46.2 µM | TGI (IGROV1 ovarian): > 100 µM | GI50 (MALME-3M melanoma): 1.82 µM | TGI (MALME-3M melanoma): 4.19 µM | GI50 (UO-31 renal): 22.6 µM | TGI (UO-31 renal): > 100 µM | GI50 (COLO 205 colon): 3.98 µM | TGI (COLO 205 colon): > 100 µM | GI50 (OVCAR-3 ovarian): 1.7 µM | TGI (OVCAR-3 ovarian): 3.33 µM

CS(=O)(=O)c1ccc(/C=N/NC(N)=S)cc1
TGI (PC-3 prostate): > 100 µM | TGI (SK-MEL-28 melanoma): > 100 µM | TGI (RXF 393 renal): > 100 µM | TGI (IGROV1 ovarian): > 100 µM | TGI (OVCAR-5 ovarian): > 100 µM | TGI (MALME-3M melanoma): > 100 µM | TGI (UO-31 renal): > 100 µM | TGI (COLO 205 colon): > 100 µM | TGI (HCT-15 colon): > 100 µM | TGI (OVCAR-3 ovarian): > 100 µM

Nc1ncnc2c1ncn2C1OC(COP(=O)(O)O)C(O)C1O (stereo unspecified)
TGI (SK-MEL-28 melanoma): > 50 µM | TGI (RXF 393 renal): > 50 µM | TGI (IGROV1 ovarian): > 50 µM | TGI (OVCAR-5 ovarian): > 50 µM | TGI (MALME-3M melanoma): > 50 µM | TGI (UO-31 renal): > 50 µM | TGI (COLO 205 colon): > 50 µM | TGI (HCT-15 colon): > 50 µM | TGI (OVCAR-3 ovarian): > 50 µM

Fc1ccc2[nH]cc(-c3nc(-c4c[nH]c5ncccc45)cs3)c2c1
GI50 (SK-MEL-28 melanoma): > 100 µM | TGI (SK-MEL-28 melanoma): > 100 µM | GI50 (RXF 393 renal): > 100 µM | TGI (RXF 393 renal): > 100 µM | GI50 (IGROV1 ovarian): 4.46 µM | TGI (IGROV1 ovarian): > 100 µM | GI50 (OVCAR-5 ovarian): > 100 µM | TGI (OVCAR-5 ovarian): > 100 µM | GI50 (UO-31 renal): 0.478 µM | TGI (UO-31 renal): > 100 µM | GI50 (COLO 205 colon): 1.7 µM | TGI (COLO 205 colon): > 100 µM

C/C(CC/C(C)=N/O)=N\O
TGI (PC-3 prostate): > 100 µM | TGI (SK-MEL-28 melanoma): > 100 µM | TGI (RXF 393 renal): > 100 µM | TGI (IGROV1 ovarian): > 100 µM | TGI (OVCAR-5 ovarian): > 100 µM | TGI (MALME-3M melanoma): > 100 µM | TGI (UO-31 renal): > 100 µM | TGI (COLO 205 colon): > 100 µM | TGI (HCT-15 colon): > 100 µM | TGI (OVCAR-3 ovarian): > 100 µM

N/C(=N\N=C/c1ccccc1O)NO
TGI (SK-MEL-28 melanoma): > 100 µM | TGI (RXF 393 renal): 25.9 µM | TGI (IGROV1 ovarian): > 100 µM | TGI (OVCAR-5 ovarian): > 100 µM | TGI (MALME-3M melanoma): > 84.1 µM | TGI (UO-31 renal): > 95.5 µM | TGI (COLO 205 colon): > 27.4 µM | TGI (HCT-15 colon): > 100 µM | TGI (OVCAR-3 ovarian): > 100 µM

O=C(O)c1cc2ccccc2c(N=Nc2ccccc2)c1O
TGI (PC-3 prostate): 60.1 µM | TGI (SK-MEL-28 melanoma): > 100 µM | TGI (RXF 393 renal): 72.5 µM | TGI (IGROV1 ovarian): > 100 µM | TGI (OVCAR-5 ovarian): > 100 µM | TGI (MALME-3M melanoma): 26.6 µM | TGI (UO-31 renal): > 100 µM | TGI (COLO 205 colon): 47.2 µM | TGI (HCT-15 colon): > 100 µM | TGI (OVCAR-3 ovarian): > 100 µM
